We go through 26 compounds from publication PMC11279468, “Exploring a New Generation of Pyrimidine and Pyridine Derivatives as Anti-Influenza Agents Targeting the Polymerase PA–PB1 Subunits Interaction” (Pharmaceutics, 2024).

Read-outs that look alike come from different tables or passages of the source.

The target in data set [1] is T1, PA–PB1 interaction (6His-PA(239–716) / GST-PB1(1–25)) (Influenza A virus, UniProt P03433).
Data set [2] relates to Influenza virus strain A/PR/8/34 (H1N1). Conditions: plaque reduction assay in MDCK cells; cited from earlier work.
The next data set relates to MDCK cells. As to conditions: cited from earlier work.
Data set [3] deals with T1, PA–PB1 interaction (6His-PA(239–716) / GST-PB1(1–25)). Kind of data set: biochemical. The data set is classed as binding.
Data set [4] deals with Influenza virus strain A/PR/8/34 (H1N1). Kind of data set: microbe, parasite or virus in culture. As to conditions: unidentified influenza virus, MDCK, read-out: EC50 (PRA).
The next data set can be described thus: in vitro. As to conditions: dog.

Broadly, the IC50 is the concentration that gives 50% inhibition. The term EC50 denotes the concentration that produces a half-maximal response. One may read the melting point as the temperature, or range, at which the solid turns liquid.

Method for in vitro: The cytotoxicity of compounds was tested in MDCK cells using the 3-(4,5-dimethylthiazol-2-yl)-2,5-diphenyl tetrazolium bromide (MTT) method, as previously reported [32]. Briefly, MDCK cells (seeded at a density of 2 × 10^4 per well) were grown in 96-well plates for 24 h and then treated with serial dilutions of test compounds, or DMSO as a control, in DMEM supplemented with 10% FBS. After incubation at 37 °C for 48 h, 5 mg/mL of MTT (Sigma, Tokyo, Japan) in PBS was added into each well and incubated at 37 °C for a further 4 h. Successively, a solubilization solution was added to lyse the cells and incubated overnight at 37 °C. Finally, optical density was read at the wavelength of 570 nm on a microtiter plate reader (MultiSkan FC, ThermoFisher Scientific).

Take `Cc1ccc(-c2cc(-c3ccccc3)nc(SCC(=O)Nc3cccc(C)c3)c2C#N)cc1` [Compound 1a]: the IC50 in data set [1] (ELISA PA–PB1 interaction; read-out: IC50 (ELISA PA–PB1); cited from earlier work) is 80 µM.

Consider `Cc1cccc(NC(=O)CSc2cc(-c3ccccc3)cc(-c3ccccc3)n2)c1` [Compound 1e], for which the EC50 in data set [2] was 7.3 ± 1.3 µM. In the data set on MDCK cells, the CC50 is over 250 µM. Also, in data set [1] (read-out: IC50 (ELISA PA–PB1); ELISA PA–PB1 interaction; cited from earlier work), the IC50 is 52.6 ± 9 µM.

As to `Cc1cccc(NC(=O)CSc2nc(-c3ccc(Cl)cc3)cc(-c3ccc(Cl)cc3)n2)c1` [Compound 2a, 2-{[4,6-Bis(4-chlorophenyl)pyrimidin-2-yl]thio}-N-(m-tolyl)acetamide], the melting point lay in the range of 225 to 227 °C. In addition, the IC50 in data set [3] worked out at 70.8 ± 19.5 µM. In addition, in data set [4], the 50% effective concentration (EC50) is over 100 µM. This compound registered a CC50 at 48 h in the data set “in vitro” of over 250 µM.

Take `Cc1cccc(NC(=O)CSc2nc(-c3ccc(F)cc3)cc(-c3ccc(F)cc3)n2)c1` [Compound 2b, 2-{[4,6-Bis(4-fluorophenyl)pyrimidin-2-yl]thio}-N-(m-tolyl)acetamide]: the melting point lay within 210 to 211 °C. The compound further gave an IC50 in data set [3] of 137 ± 35 µM. Further, the EC50 in data set [4] stood at 62.5 ± 4.3 µM. The same compound came in with a CC50 at 48 h in the data set “in vitro” of over 250 µM.

As to `Cc1cccc(NC(=O)CSc2nc(-c3ccccc3)cc(-c3ccc(Cl)cc3)n2)c1` [Compound 2c, 2-{[4-(4-Chlorophenyl)-6-phenylpyrimidin-2-yl]thio}-N-(m-tolyl)acetamide], the melting point was in the range of 204 to 206 °C. For the same compound, 86 ± 5.3 µM corresponded to half-maximal inhibition in data set [3] (IC50). The EC50 in data set [4] was 45.5 ± 2.1 µM. Moreover, the CC50 at 48 h in the data set “in vitro” is over 250 µM.

Consider `Cc1cccc(NC(=O)CSc2nc(-c3ccc(F)cc3)cc(-c3ccc(Cl)cc3)n2)c1` [Compound 2e, 2-{[4-(4-Chlorophenyl)-6-(4-fluorophenyl)pyrimidin-2-yl]thio}-N-(m-tolyl)acetamide], for which the melting point lay within 213 to 217 °C. Also, inhibition in data set [3] was half-maximal at 125 ± 37 µM (IC50). Further, in data set [4], the EC50 was 29.5 ± 0.7 µM. In “in vitro”, this compound gave a CC50 at 48 h of 206 ± 12 µM.

In turn, `Cc1cccc(NC(=O)CSc2nc(-c3ccccc3)cc(-c3cccc4ccccc34)n2)c1` [Compound 2f, 2-{[4-(Naphthalen-1-yl)-6-phenylpyrimidin-2-yl)thio)-N-(m-tolyl)acetamide] had a melting point of 147 to 148 °C. For the same compound, in data set [3], the IC50 was over 200 µM and the “activity as PA–PB1 disruptors (in words)” value is “lack of activity as PA–PB1 disruptors”. In data set [4], the EC50 amounted to 21.1 ± 8 µM. Also, the CC50 at 48 h in “in vitro” is over 250 µM.

`Cc1cccc(NC(=O)CSc2nc(-c3ccc(Cl)cc3)cc(-c3cccc4ccccc34)n2)c1` [Compound 2g, 2-{[4-(4-Chlorophenyl)-6-(naphthalen-1-yl)pyrimidin-2-yl]thio}-N-(m-tolyl)acetamide] yielded a melting point of 103 to 107 °C. For the same compound, in data set [3], the IC50 is over 200 µM. Moreover, the EC50 in data set [4] was over 100 µM. The compound further returned a CC50 at 48 h in “in vitro” of over 250 µM.

As to `Cc1cccc(NC(=O)CSc2nc(-c3ccc(F)cc3)cc(-c3cccc4ccccc34)n2)c1` [Compound 2h, 2-{[4-(4-Fluorophenyl)-6-(1-naphthyl)pyrimidin-2-yl]thio}-N-(3-methylphenyl)acetamide], the melting point lay in the range of 145 to 147 °C. Besides, in data set [3], the IC50 was over 200 µM and the “activity as PA–PB1 disruptors (in words)” value is recorded as “lack of activity as PA–PB1 disruptors”. The EC50 in data set [4] is 14.8 ± 1.6 µM. This compound also came in with a CC50 at 48 h in the data set “in vitro” of over 250 µM.

For the compound `Cc1cccc(NC(=O)CSc2nc(Sc3ccccc3)cc(-c3ccccc3)n2)c1` [Compound 2i, 2-{[4-Phenyl-6-(phenylthio)pyrimidin-2-yl]thio}-N-(m-tolyl)acetamide], the melting point is 127 to 128 °C. Besides, it took 28.8 ± 1.5 µM to reach half-maximal inhibition in data set [3] (IC50). In addition, the EC50 in data set [4] worked out at 4.6 ± 0.3 µM. This compound returned a CC50 at 48 h in “in vitro” of 73.3 ± 9.1 µM.

Take `Cc1cccc(NC(=O)CSc2cc(-c3ccccc3)cc(Sc3ccccc3)n2)c1` [Compound 2m, 2-{[4-Phenyl-6-(phenylthio)pyridin-2-yl]thio}-N-(m-tolyl)acetamide]: the melting point lay in the range of 122 to 123 °C. The compound also yielded an IC50 in data set [3] of 141 ± 44 µM. In addition, the EC50 in data set [4] is 32.3 ± 3.2 µM. The same compound displayed a CC50 at 48 h in “in vitro” of over 250 µM.

For `Cc1cccc(NC(=O)CSc2cc(-c3ccc(Cl)cc3)cc(Sc3ccccc3)n2)c1` [Compound 2n, 2-{[4-(4-chlorophenyl)-6-(phenylthio)pyridin-2-yl]thio}-N-(m-tolyl)acetamide], the melting point lay in the range of 93 to 95 °C. Besides, the IC50 in data set [3] came to 87 ± 15.7 µM. Also, in data set [4], the EC50 was 62.9 ± 13.2 µM. Besides, in “in vitro”, the CC50 at 48 h is over 250 µM.

`COC(=O)[C@@H](NC(=O)CSc1nc(-c2ccccc2)cc(-c2ccc(F)cc2)n1)C(C)C` [Compound 3a, Methyl (2-((4-(4-fluorophenyl)-6-phenylpyrimidin-2-yl)thio)acetyl)-L-valinate] came in with a melting point of 152 to 153 °C. Also, the IC50 in data set [3] was over 200 µM. In addition, the EC50 in data set [4] was over 100 µM. Also, in the data set “in vitro”, the CC50 at 48 h was 234 ± 19 µM.

The compound `CC[C@H](C)[C@H](NC(=O)CSc1nc(-c2ccccc2)cc(-c2ccc(F)cc2)n1)C(=O)OC` [Compound 3b, Methyl (2-((4-(4-fluorophenyl)-6-phenylpyrimidin-2-yl)thio)acetyl)-L-isoleucinate] gave a melting point of 94 to 95 °C. In data set [3], this compound displayed an IC50 of over 200 µM. For the same compound, the EC50 in data set [4] is over 100 µM. This compound also displayed a CC50 at 48 h in the data set “in vitro” of over 250 µM.

Compound `COC(=O)[C@H](Cc1ccc(O)cc1)NC(=O)CSc1nc(-c2ccccc2)cc(-c2ccc(F)cc2)n1` [Compound 3c, Methyl (2-((4-(4-fluorophenyl)-6-phenylpyrimidin-2-yl)thio)acetyl)-L-tyrosinate] returned a melting point of 167 to 168 °C. Besides, in data set [3], 172 ± 7 µM corresponded to half-maximal inhibition (IC50). Further, the half-maximal effective concentration (EC50) in data set [4] was over 100 µM. This compound also had a CC50 at 48 h in “in vitro” of over 250 µM.

The compound `COC(=O)[C@H](Cc1c[nH]cn1)NC(=O)CSc1nc(-c2ccccc2)cc(-c2ccc(F)cc2)n1` [Compound 3d, Methyl (2-((4-(4-fluorophenyl)-6-phenylpyrimidin-2-yl)thio)acetyl)-L-histidinate] displayed a melting point of 77 to 78 °C. The compound also came in with an IC50 in data set [3] of 70 ± 2.8 µM. Also, the EC50 in data set [4] was over 100 µM. The CC50 at 48 h in “in vitro” stood at 98 ± 11.3 µM.

For the compound `COC(=O)[C@@H](NC(=O)CSc1nc(-c2ccc(F)cc2)cc(-c2ccc(F)cc2)n1)C(C)C` [Compound 3e, Methyl (2-((4,6-bis(4-fluorophenyl)pyrimidin-2-yl)thio)acetyl)-L-valinate], the melting point lay within 174 to 175 °C. Also, the IC50 in data set [3] was over 200 µM. Also, the EC50 in data set [4] is over 100 µM. Also, in “in vitro”, the CC50 at 48 h was over 250 µM.

Turning to `CC[C@H](C)[C@H](NC(=O)CSc1nc(-c2ccc(F)cc2)cc(-c2ccc(F)cc2)n1)C(=O)OC` [Compound 3f, Methyl (2-((4,6-bis(4-fluorophenyl)pyrimidin-2-yl)thio)acetyl)-L-isoleucinate], the melting point was 150 to 151 °C. This compound also registered an IC50 in data set [3] of over 200 µM. Further, the EC50 in data set [4] is over 100 µM. Further, in “in vitro”, the CC50 at 48 h was over 250 µM.

For `COC(=O)[C@H](Cc1ccc(O)cc1)NC(=O)CSc1nc(-c2ccc(F)cc2)cc(-c2ccc(F)cc2)n1` [Compound 3g, Methyl (2-((4,6-bis(4-fluorophenyl)pyrimidin-2-yl)thio)acetyl)-L-tyrosinate], the IC50 in data set [3] is over 200 µM. For the same compound, in data set [4], the EC50 was over 100 µM. In the data set “in vitro”, this compound came in with a CC50 at 48 h of over 250 µM.

`COC(=O)[C@H](Cc1c[nH]cn1)NC(=O)CSc1nc(-c2ccc(F)cc2)cc(-c2ccc(F)cc2)n1` [Compound 3h, Methyl (2-((4,6-bis(4-fluorophenyl)pyrimidin-2-yl)thio)acetyl)-L-histidinate]: the melting point was in the range of 107 to 108 °C. In addition, in data set [3], the IC50 was 108 ± 14 µM. The EC50 in data set [4] is over 100 µM. For the same compound, the CC50 at 48 h in the data set “in vitro” was over 250 µM.

The compound `COC(=O)[C@@H](NC(=O)CSc1cc(-c2ccccc2)cc(-c2ccccc2)n1)C(C)C` [Compound 3i, Methyl (2-((4,6-diphenylpyridin-2-yl)thio)acetyl)-L-valinate] yielded a melting point of 63 to 64 °C. Also, the IC50 in data set [3] is over 200 µM.

Take `CC[C@H](C)[C@H](NC(=O)CSc1cc(-c2ccccc2)cc(-c2ccccc2)n1)C(=O)OC` [Compound 3j, Methyl (2-((4,6-diphenylpyridin-2-yl)thio)acetyl)-L-isoleucinate]: the melting point lay within 70 to 71 °C. The IC50 in data set [3] is over 200 µM.

Compound `COC(=O)[C@H](Cc1ccc(O)cc1)NC(=O)CSc1cc(-c2ccccc2)cc(-c2ccccc2)n1` [Compound 3k, Methyl (2-((4,6-diphenylpyridin-2-yl)thio)acetyl)-L-tyrosinate] had a melting point of 111 to 112 °C. In data set [3], the IC50 is over 200 µM.

Regarding `CC[C@H](C)[C@H](NC(=O)CSc1cc(-c2ccccc2)cc(-c2ccc(F)cc2)n1)C(=O)OC` [Compound 3l, Methyl (2-((6-(4-fluorophenyl)-4-phenylpyridin-2-yl)thio)acetyl)-L-isoleucinate], the melting point was 76 to 77 °C. For the same compound, the IC50 in data set [3] was over 200 µM.

Regarding `COC(=O)[C@H](Cc1ccc(O)cc1)NC(=O)CSc1cc(-c2ccccc2)cc(-c2ccc(F)cc2)n1` [Compound 3m, Methyl (2-((6-(4-fluorophenyl)-4-phenylpyridin-2-yl)thio)acetyl)-L-tyrosinate], the melting point was in the range of 151 to 152 °C. The compound further gave an IC50 in data set [3] of over 200 µM.

`COC(=O)[C@H](Cc1c[nH]cn1)NC(=O)CSc1cc(-c2ccccc2)cc(-c2ccc(F)cc2)n1` [Compound 3n, Methyl (2-((6-(4-fluorophenyl)-4-phenylpyridin-2-yl)thio)acetyl)-L-histidinate]: the melting point was in the range of 155 to 156 °C. In data set [3], this compound yielded an IC50 of over 200 µM.
